Test results published in patent publication US9220719B2, “Single dose oral formulations and methods for treatment of cats with ectoparasiticidal spinosad” (priority 2012, dated 2015).

What was measured:
[1] = tested on: adult cat flea (Ctenocephalides felis); experiment: Dose determination: knockdown and residual effectiveness of spinosad (gelatin capsule) against adult fleas on experimentally infested cats (Example 1); format: in vivo; conditions: for Geometric Mean Counts of Adult C. felis / Geometric Mean Percent Reduction of Adult C. felis Compared to Untreated Control Group: fed
Text: The “knockdown” and “residual” effectiveness of spinosad can be evaluated following oral administration at four different single dosages, compared to a non-treated control group, against the adult cat flea (Ctenocephalides felis) on experimentally infested cats. A minimum effective oral dose in cats can be evaluated based on knockdown efficacy (i.e., on Day 1 following administration) and on residual efficacy (i.e., on Day 30 following administration) against the cat flea (Ctenocephalides felis).
Forty cats can be evaluated in a randomized complete block design with cat gender and pretreatment live flea counts used as blocking factors. Five treatment groups of four female and four male cats per group can be orally dosed on Test Day 0: Group (1) can be administered 0 mg/kg vehicle control (empty gelatin capsule); Group (2) can be administered spinosad in a gelatin capsule at a dose of 35 mg/kg body weight; Group (3) can be administered spinosad in a gelatin capsule at a dose of 40 mg/kg body weight; Group (4) can be administered spinosad in a gelatin capsule at a dose of 45 mg/kg body weight; and Group (5) can be administered spinosad in a gelatin capsule at a dose of 50 mg/kg body weight. All cats can consume canned cat food just prior to dosing to ensure they were in a fed state. Each cat can be infested with approximately 100 newly emerged, unfed adult fleas (C. felis), on Test Days −6, −1, 5, 12, 19, 28 and 35. Individual animal flea counts can be performed approximately 48-hours post-infestation using the laboratory's comb counting method on Test Days −4, 1, 7, 14, 21, 30 and 37. The Day −4 pre-treatment live flea counts can be used to allocate animals to the five treatment groups. The Day 1, 7, 14, 21, 30 and 37 flea counts can be used to evaluate the knockdown (Day 1) and residual flea efficacy in each of the treated groups compared to the vehicle (negative) control group.

[2] = Tolerability of oral spinosad in cats (Example 1); format: in vivo, cat; conditions: single oral dose 35-50 mg/kg in gelatin capsule
[3] = Pharmacokinetics of spinosad API capsules and spinosad tablets after oral administration to cats (Example 2); conditions: for mean Tmax / mean elimination half-life (t1/2) / mean normalized AUC0-∞ / mean normalized Cmax: cats, oral; for mean normalized AUC0-∞ / mean normalized Cmax: plasma, normalized to dose
Procedure: The plasma concentrations and resulting pharmacokinetics of spinosad tablets when administered orally to adult cats in the fed or fasted state can be evaluated. Twenty four cats (12 male and 12 female) can be dosed with approximately 80 mg/kg spinosad, as either API in gelatin capsules or as spinosad formulated chewable tablets. Serial blood samples can be collected through 672 hours (28 days) after dose administration. […] Samples can be immediately mixed by inversion several times and stored on ice until centrifuged. The plasma can be collected, split into two approximately equal aliquots and stored frozen at approximately −70° C. until shipped for analysis, and/or analyzed by a validated LC/MS/MS assay.

[4] = tested on: adult cat fleas (Ctenocephalides felis); experiment: Dose confirmation: efficacy of beef flavored spinosad tablet against fleas on experimentally infested cats (Example 3); format: in vivo; conditions: beef flavored tablet 50-75 mg/kg single oral dose
Procedure: The treatment effect (insecticidal efficacy) of a beef flavored spinosad tablet when administered orally at a dose of 50-75 mg/kg against fleas (Ctenocephalides felis) on experimentally infested cats can be evaluated at one day post-administration and for the post-treatment prevention effect (residual efficacy) on Days 7, 14, 21 and 28.
(§1) In total, twenty-two (22) cats can be acclimatized for the study and from these, 17 can be selected based on pre-treatment weight and flea retention counts to be randomized into either a treated or control group. Nine cats can be assigned to the control group and eight cats can be assigned to the treatment group based on flea retention counts from Day −5. Cats in the treated group can be dosed on Day 0 with the intended final formulation, a beef flavored tablet containing spinosad at a dose rate of 50-75 mg/kg spinosad/body weight, while the cats in the control group can be dosed with a vehicle control tablet.
Each cat can be infested with approximately 100 fleas on Days −1, 7, 14, 21 and 28 and then combed and the fleas counted on Days 1, 9, 16, 23 and 30 respectively.
(§2) Seventeen cats were randomized based on pre-treatment flea infestation counts into either a treated or control group. Eight cats were dosed on Day 0 with a beef flavored tablet containing spinosad with an overall dose range of 51.47 to 76.06 mg/kg spinosad body weight. The other nine cats were dosed with a vehicle control tablet.

[5] = Tolerability of flavored spinosad tablet in cats (Example 3); format: in vivo, cat; conditions: beef flavored tablet 51.47 to 76.06 mg/kg single oral dose
Text: as §1, §2

[6] = tested on: adult cat fleas (Ctenocephalides felis); experiment: Dose confirmation: efficacy of flavored spinosad tablet against fleas on experimentally infested cats (Example 4); format: in vivo; conditions: flavored tablet 50-75 mg/kg single oral dose, fed
Text: Confirmation of the efficacious dose of spinosad can be evaluated in cats experimentally infested with adult fleas (Ctenocephalides felis).
Twenty-four (24) cats that meet the inclusion/exclusion criteria and had the highest pre-treatment live flea (C. felis) counts can be included in a randomized complete block design with pre-treatment live flea counts used as a blocking factor. Each cat can be infested with approximately 100 unfed adult fleas (C. felis) on Test Day −9. Pre-treatment live flea counts can be conducted using the laboratory's comb counting method on Test Day −7. The Test Day −7 live flea counts can be used to allocate cats to one of two treatment groups. The two treatment groups of 12 cats per group can be orally dosed on Test Day 0. One group (5 male: 7 female) can receive vehicle control (0 mg/kg placebo tablets) and the second group (7 male: 5 female) can receive flavored spinosad tablets at a dose rate of 50-75 mg/kg body weight. Cats can consume canned cat food just prior to dosing and can be offered their daily maintenance diet after dosing. Each cat can be infested with approximately 100 unfed adult fleas (C. felis) on Test Days −1, 5, 12, 19, 28 and 35. Individual animal live flea counts can be performed on Test Days 1, 7, 14, 21, 30 and 37.

[7] = single oral dose 35 mg/kg in gelatin capsule, Day 7 post treatment
[8] = single oral dose 35 mg/kg in gelatin capsule, Day 14 post treatment
[9] = single oral dose 35 mg/kg in gelatin capsule, Day 21 post treatment
[10] = single oral dose 35 mg/kg in gelatin capsule, Day 37 post treatment
[11] = single oral dose 40 mg/kg in gelatin capsule, Day 7 post treatment
[12] = single oral dose 40 mg/kg in gelatin capsule, Day 14 post treatment
[13] = single oral dose 40 mg/kg in gelatin capsule, Day 21 post treatment
[14] = single oral dose 40 mg/kg in gelatin capsule, Day 30 post treatment
[15] = single oral dose 40 mg/kg in gelatin capsule, Day 37 post treatment
[16] = single oral dose 45 mg/kg in gelatin capsule, Day 7 post treatment
[17] = single oral dose 45 mg/kg in gelatin capsule, Day 14 post treatment
[18] = single oral dose 45 mg/kg in gelatin capsule, Day 21 post treatment
[19] = single oral dose 45 mg/kg in gelatin capsule, Day 37 post treatment
[20] = single oral dose 50 mg/kg in gelatin capsule, Day 7 post treatment
[21] = single oral dose 50 mg/kg in gelatin capsule, Day 14 post treatment
[22] = single oral dose 50 mg/kg in gelatin capsule, Day 21 post treatment
[23] = single oral dose 50 mg/kg in gelatin capsule, Day 30 post treatment
[24] = single oral dose 50 mg/kg in gelatin capsule, Day 37 post treatment
[25] = group 1: 80 mg/kg spinosad API in gel capsules, fed
[26] = group 2: 80 mg/kg spinosad tablets, fed
[27] = group 3: 80 mg/kg spinosad tablets, fasted

spinosad
fleas at each comb count ([1]; 50 mg/kg oral, up through Day 21): zero
post-treatment residual flea efficacy (geometric means) ([1]; all four spinosad groups (35, 40, 45, 50 mg/kg oral), up to and including Day 21 post-treatment): > 90%
Geometric Mean Counts of Adult C. felis ([1]; single oral dose 35 mg/kg in gelatin capsule, Day 1 post treatment): (0.0)
Geometric Mean Percent Reduction of Adult C. felis Compared to Untreated Control Group ([1]; single oral dose 35 mg/kg in gelatin capsule, Day 1 post treatment, 35 mg/kg): 100%
Geometric Mean Counts of Adult C. felis [1, 7]: (0.0)
Geometric Mean Percent Reduction of Adult C. felis Compared to Untreated Control Group [1, 7]: 100.00%
Geometric Mean Counts of Adult C. felis [1, 8]: (0.2)
Geometric Mean Percent Reduction of Adult C. felis Compared to Untreated Control Group [1, 8]: 99.74%
Geometric Mean Counts of Adult C. felis [1, 9]: (5.4)
Geometric Mean Percent Reduction of Adult C. felis Compared to Untreated Control Group [1, 9]: 92.94%
Geometric Mean Counts of Adult C. felis ([1]; single oral dose 35 mg/kg in gelatin capsule, Day 30 post treatment): (11.8)
Geometric Mean Counts of Adult C. felis [1, 10]: (32.4)
Geometric Mean Percent Reduction of Adult C. felis Compared to Untreated Control Group [1, 10]: 52.20%
Geometric Mean Counts of Adult C. felis ([1]; single oral dose 40 mg/kg in gelatin capsule, Day 1 post treatment): (0.0)
Geometric Mean Percent Reduction of Adult C. felis Compared to Untreated Control Group ([1]; single oral dose 40 mg/kg in gelatin capsule, Day 1 post treatment, 40 mg/kg): 100%
Geometric Mean Counts of Adult C. felis [1, 11]: (0.0)
Geometric Mean Percent Reduction of Adult C. felis Compared to Untreated Control Group [1, 11]: 100.00%
Geometric Mean Counts of Adult C. felis [1, 12]: (0.0)
Geometric Mean Percent Reduction of Adult C. felis Compared to Untreated Control Group [1, 12]: 100.00%
Geometric Mean Counts of Adult C. felis [1, 13]: (1.0)
Geometric Mean Percent Reduction of Adult C. felis Compared to Untreated Control Group [1, 13]: 98.74%
Geometric Mean Counts of Adult C. felis [1, 14]: (5.2)
Geometric Mean Percent Reduction of Adult C. felis Compared to Untreated Control Group [1, 14]: 91.59%
Geometric Mean Counts of Adult C. felis [1, 15]: (18.9)
Geometric Mean Percent Reduction of Adult C. felis Compared to Untreated Control Group [1, 15]: 72.18%
Geometric Mean Counts of Adult C. felis ([1]; single oral dose 45 mg/kg in gelatin capsule, Day 1 post treatment): (0.0)
Geometric Mean Percent Reduction of Adult C. felis Compared to Untreated Control Group ([1]; single oral dose 45 mg/kg in gelatin capsule, Day 1 post treatment, 45 mg/kg): 100%
Geometric Mean Counts of Adult C. felis [1, 16]: (0.4)
Geometric Mean Percent Reduction of Adult C. felis Compared to Untreated Control Group [1, 16]: 99.50%
Geometric Mean Counts of Adult C. felis [1, 17]: (2.0)
Geometric Mean Percent Reduction of Adult C. felis Compared to Untreated Control Group [1, 17]: 97.22%
Geometric Mean Counts of Adult C. felis [1, 18]: (4.6)
Geometric Mean Percent Reduction of Adult C. felis Compared to Untreated Control Group [1, 18]: 93.98%
Geometric Mean Counts of Adult C. felis ([1]; single oral dose 45 mg/kg in gelatin capsule, Day 30 post treatment): (11.9)
Geometric Mean Counts of Adult C. felis [1, 19]: (35.1)
Geometric Mean Percent Reduction of Adult C. felis Compared to Untreated Control Group [1, 19]: 48.29%
Geometric Mean Counts of Adult C. felis ([1]; single oral dose 50 mg/kg in gelatin capsule, Day 1 post treatment): (0.0)
Geometric Mean Percent Reduction of Adult C. felis Compared to Untreated Control Group ([1]; single oral dose 50 mg/kg in gelatin capsule, Day 1 post treatment, 50 mg/kg): 100%
Geometric Mean Counts of Adult C. felis [1, 20]: (0.0)
Geometric Mean Percent Reduction of Adult C. felis Compared to Untreated Control Group [1, 20]: 100.00%
Geometric Mean Counts of Adult C. felis [1, 21]: (0.0)
Geometric Mean Percent Reduction of Adult C. felis Compared to Untreated Control Group [1, 21]: 100.00%
Geometric Mean Counts of Adult C. felis [1, 22]: (0.0)
Geometric Mean Percent Reduction of Adult C. felis Compared to Untreated Control Group [1, 22]: 100.00%
Geometric Mean Counts of Adult C. felis [1, 23]: (1.6)
Geometric Mean Percent Reduction of Adult C. felis Compared to Untreated Control Group [1, 23]: 97.33%
Geometric Mean Counts of Adult C. felis [1, 24]: (8.5)
Geometric Mean Percent Reduction of Adult C. felis Compared to Untreated Control Group [1, 24]: 87.50%
tolerability [2]: well tolerated
AUC0-∞ in fed animals relative to fasted animals ([3]; in vivo): 5-10 times
Cmax in fed animals relative to fasted animals ([3]; in vivo): 4-7 times
Geometric Mean Percent Reduction of Adult C. felis Compared to Untreated Control Group ([4]; Day 1 post treatment): 100.0%
Geometric Mean Percent Reduction of Adult C. felis Compared to Untreated Control Group ([4]; Day 7 (day of infestation, counted Day 9)): 100.0%
Geometric Mean Percent Reduction of Adult C. felis Compared to Untreated Control Group ([4]; Day 14 (day of infestation, counted Day 16)): 99.69%
Geometric Mean Percent Reduction of Adult C. felis Compared to Untreated Control Group ([4]; Day 21 (day of infestation, counted Day 23)): 99.45%
Geometric Mean Percent Reduction of Adult C. felis Compared to Untreated Control Group ([4]; Day 28 (day of infestation, counted Day 30)): 98.05%
tolerability [5]: adequately tolerated
knockdown efficacy based on geometric means ([6]; Day 1): 100%
residual efficacy based on geometric means ([6]; Day 7): 99.78%
residual efficacy based on geometric means ([6]; Day 14): 99.57%
residual efficacy based on geometric means ([6]; Day 21): 95.83%
residual efficacy based on geometric means ([6]; Day 30): 90.77%
residual efficacy based on geometric means ([6]; Day 37): 90.36%

spinosyn A
mean Tmax [3, 25]: 12 ± 5.2 h
mean elimination half-life (t1/2) [3, 25]: 327 ± 84.3 h
mean normalized AUC0-∞ [3, 25]: 4,460±1410 hr*ng*kg/mg*mL
mean normalized Cmax [3, 25]: 60 ± 18 ng·kg/mg/mL
mean Tmax [3, 26]: 10 ± 3.0 h
mean elimination half-life (t1/2) [3, 26]: 277 ± 75.5 h
mean normalized AUC0-∞ [3, 26]: 4,480±1180 hr*ng*kg/mg*mL
mean normalized Cmax [3, 26]: 46 ± 14 ng·kg/mg/mL
mean Tmax [3, 27]: 6.0 ± 3.7 h
mean elimination half-life (t1/2) [3, 27]: 193 ± 60.5 h
mean normalized AUC0-∞ [3, 27]: 781 ± 406 ng·kg·h/mg/mL
mean normalized Cmax [3, 27]: 11 ± 6.6 ng·kg/mg/mL
